Measurements reported in patent US11648254B2 (Kumquat Biosciences Inc., priority 2021, dated 2023).
Like-named read-outs stand apart in the source and are kept apart here.

Legend:
[1] = test system: MIA PaCa-2 cells (K-Ras G12C); assay: Ras-SOS cellular growth inhibition assay (CellTiter-Glo, 3D); type: cell-based
How it was run: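 MIA PaCa-2 cells grown in ultra-low-attachment plates (3D) in DMEM/Ham's F12 with 10% FCS and 2.5% horse serum, treated the day after seeding with a 9-point 3-fold compound series for about 5 days. Viability by CellTiter-Glo luminescence; IC50 from four-parameter fit.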

[2] = target: SOS1 (Homo sapiens (Human), UniProt Q07889); assay: Ras-SOS interaction assay (HTRF); type: biochemical
[3] = test system: NCI-H1975 cells (EGFR T790M L858R); assay: EGFR-SOS cellular inhibition assay (CellTiter-Glo, 3D); type: cell-based
[4] = Homo sapiens, MIA PaCa-2, 120 h, MIA PaCa-2, 3D proliferation, about 5 days, read-out: Bio-Cell-Prolif-3D (MiaPaca2 IC50)
[5] = K-RasG13D utilized, read-out: IC50 inhibition of SOS
[6] = K-RasG13D, read-out: IC50 value against SOS1
[7] = Homo sapiens, 120 h, NCI-H1975, 3D proliferation, about 5 days, read-out: Bio-Cell-Prolif-3D (H1975 IC50)
[8] = Homo sapiens, MIA PaCa-2, MIA PaCa-2, read-out: IC50 in inhibiting MIA PaCa-2 cell growth
[9] = Homo sapiens, NCI-H1975, EGFR T790M L858R, read-out: IC50 in inhibiting growth of NCI-H1975 cell line

| Compound | IC50 [1, 4] | IC50 [2, 5] | IC50 [2, 6] | IC50 [3, 7] | IC50 [1, 8] | IC50 [3, 9] | IC50 ([1]; MIA PaCa-2, 3D proliferation, about 5 days, read-out: Bio-Cell-Prolif-3D (MiaPaca2 IC50)) | IC50 ([3]; NCI-H1975, 3D proliferation, about 5 days, read-out: Bio-Cell-Prolif-3D (H1975 IC50)) | IC50 ([3]; NCI-H1975, EGFR T790M L858R, read-out: IC50 in inhibiting growth of NCI-H1975 cell line) |
| --- | --- | --- | --- | --- | --- | --- | --- | --- | --- |
| COc1nc2nc(C)nc(N[C@H](C)c3cccc(C(F)F)c3F)c2cc1S(=O)(=O)N1CCNCC1 [Compound 114, (R)-N-(1-(3-(difluoromethyl)-2-fluorophenyl)ethyl)-7-methoxy-2-methyl-6-(piperazin-1-ylsulfonyl)pyrido[2,3-d]pyrimidin-4-amine] | ≤ 1 µM | < 0.1 µM | < 0.05 µM | ≤ 1 µM | – | – | – | – | – |
| COc1nc2nc(C)nc(N[C@H](C)c3cccc(C(F)(F)F)c3C)c2cc1C1(C#N)CC1 [Compound 213, (R)-1-(7-methoxy-2-methyl-4-((1-(2-methyl-3-(trifluoromethyl)phenyl)ethyl)amino)pyrido[2,3-d]pyrimidin-6-yl)cyclopropane-1-carbonitrile] | ≤ 1 µM | < 0.1 µM | – | ≤ 1 µM | – | – | – | – | – |
| COc1nc2nc(C)nc(N[C@H](C)c3cccc(C(F)(F)CO)c3F)c2cc1C1CCS(=O)(=O)CC1 [Compound 174, (R)-4-(4-((1-(3-(1,1-difluoro-2-hydroxyethyl)-2-fluorophenyl)ethyl)amino)-7-methoxy-2-methylpyrido[2,3-d]pyrimidin-6-yl)tetrahydro-2H-thiopyran 1,1-dioxide] | ≤ 1 µM | < 0.1 µM | < 0.05 µM | ≤ 1 µM | < 0.5 µM | < 0.5 µM | – | – | – |
| COc1nc2nc(OC3CN(C(C)C)C3)nc(N[C@H](C)c3cccc(C(F)F)c3F)c2cc1C1(C#N)CC1 [Compound 240, (R)-1-(4-((1-(3-(difluoromethyl)-2-fluorophenyl)ethyl)amino)-2-((1-isopropylazetidin-3-yl)oxy)-7-methoxypyrido[2,3-d]pyrimidin-6-yl)cyclopropane-1-carbonitrile] | ≤ 1 µM | 0.1 to 1 µM | – | ≤ 1 µM | < 0.5 µM | < 0.5 µM | – | – | – |
| Cc1c([C@@H](C)Nc2ncnc3nc(Cl)c(C4CCS(=O)(=O)CC4)cc23)cccc1C(F)(F)F [Compound 260, (R)-4-(7-chloro-4-((1-(2-methyl-3-(trifluoromethyl)phenyl)ethyl)amino)pyrido[2,3-d]pyrimidin-6-yl)tetrahydro-2H-thiopyran 1,1-dioxide] | ≤ 1 µM | < 0.1 µM | < 0.05 µM | ≤ 1 µM | < 0.5 µM | < 0.5 µM | – | – | – |
| Cc1nc(N[C@H](C)c2cccc(C(F)F)c2F)c2cc(S(=O)(=O)C3CCN(C)CC3)c(Cl)nc2n1 [Compound 132, (R)-7-chloro-N-(1-(3-(difluoromethyl)-2-fluorophenyl)ethyl)-2-methyl-6-((1-methylpiperidin-4-yl)sulfonyl)pyrido[2,3-d]pyrimidin-4-amine] | ≤ 1 µM | – | < 0.05 µM | ≤ 1 µM | < 0.5 µM | < 0.5 µM | – | – | – |
| CC(C)N1CCC(C(F)(F)c2cccc([C@@H](C)Nc3ncnc4nc(Cl)c(N5CCN(C(C)C)CC5)cc34)c2)CC1 [Compound 291, (R)-7-chloro-N-(1-(3-(difluoro(1-isopropylpiperidin-4-yl)methyl)phenyl)ethyl)-6-(4-isopropylpiperazin-1-yl)pyrido[2,3-d] pyrimidin-4-amine] | ≤ 1 µM | < 0.1 µM | < 0.05 µM | ≤ 1 µM | < 0.5 µM | < 0.5 µM | – | – | – |
| Cc1nc(N[C@H](C)c2cccc(C(F)(F)F)c2F)c2cc(N3CCN(C(C)C)CC3)c(Cl)nc2n1 [Compound 387, (R)-7-chloro-N-(1-(2-fluoro-3-(trifluoromethyl)phenyl)ethyl)-6-(4-isopropylpiperazin-1-yl)-2-methylpyrido[2,3-d] pyrimidin-4-amine] | ≤ 1 µM | < 0.1 µM | < 0.05 µM | ≤ 1 µM | < 0.5 µM | < 0.5 µM | – | – | – |
| COc1nc2nc(C)nc(N[C@H](C)c3cccc(C(F)(F)C4CCN(C)CC4)c3F)c2cc1C1(C#N)CC1 [Compound 210, (R)-1-(4-((1-(3-(difluoro(1-methylpiperidin-4-yl)methyl)-2-fluorophenyl)ethyl)amino)-7-methoxy-2-methylpyrido[2,3-d]pyrimidin-6-yl)cyclopropane-1-carbonitrile] | ≤ 1 µM | < 0.1 µM | < 0.05 µM | ≤ 1 µM | < 0.5 µM | < 0.5 µM | – | – | – |
| ((R)-1,4-dioxan-2-yl)(4-(4-(((R)-1-(2-fluoro-3-(trifluoromethyl)-phenyl)ethyl)amino)-7-methoxy-2-methylpyrido[2,3-d]pyrimidin-6-yl)piperazin-1-yl)methanone [Compound 303] | – | < 0.1 µM | < 0.05 µM | – | – | – | ≤ 1 µM | ≤ 1 µM | < 0.5 µM |
| COc1nc2ncnc(N[C@H](C)c3cccc(C(F)F)c3F)c2cc1C1(C#N)CC1 [Compound 184, (R)-1-(4-((1-(3-(difluoromethyl)-2-fluorophenyl)ethyl)amino)-7-methoxypyrido[2,3-d]pyrimidin-6-yl)cyclopropane-1-carbonitrile] | ≤ 1 µM | < 0.1 µM | – | ≤ 1 µM | – | < 0.5 µM | – | – | – |
| Cc1nc(N[C@H](C)c2cccc(C(F)F)c2F)c2cc(N3CCN(C(C)C)CC3)c(NC3COC3)nc2n1 [Compound 192, (R)-N4-(1-(3-(difluoromethyl)-2-fluorophenyl)ethyl)-6-(4-isopropylpiperazin-1-yl)-2-methyl-N7-(oxetan-3-yl)pyrido[2,3-d] pyrimidine-4,7-diamine] | 1 to 10 µM | < 0.1 µM | < 0.05 µM | ≤ 1 µM | – | – | – | – | – |
| COCCOc1nc2nc(C)nc(N[C@H](C)c3cccc(C(F)F)c3F)c2cc1C1CCS(=O)(=O)CC1 [Compound 157, (R)-4-(4-((1-(3-(difluoromethyl)-2-fluorophenyl)ethyl)amino)-7-(2-methoxyethoxy)-2-methylpyrido[2,3-d]pyrimidin-6-yl)tetrahydro-2H-thiopyran 1,1-dioxide] | ≤ 1 µM | < 0.1 µM | < 0.05 µM | ≤ 1 µM | < 0.5 µM | < 0.5 µM | – | – | – |
| CCN1CCN(c2cc3c(N[C@H](C)c4cccc(C(F)(F)F)c4F)ncnc3nc2OC)CC1 [Compound 196, (R)-6-(4-ethylpiperazin-1-yl)-N-(1-(2-fluoro-3-(trifluoromethyl)phenyl)ethyl)-7-methoxypyrido[2,3-d]pyrimidin-4-amine] | ≤ 1 µM | < 0.1 µM | < 0.05 µM | ≤ 1 µM | < 0.5 µM | < 0.5 µM | – | – | – |
| COc1nc2nc(C)nc(N[C@H](C)c3cccc(C(F)(F)F)c3C)c2cc1C1(C#N)CCN(C(C)C)CC1 [Compound 285, (R)-1-isopropyl-4-(7-methoxy-2-methyl-4-((1-(2-methyl-3-(trifluoromethyl)phenyl)ethyl)amino)pyrido[2,3-d]pyrimidin-6-yl)piperidine-4-carbonitrile] | 1 to 10 µM | < 0.1 µM | < 0.05 µM | ≤ 1 µM | – | – | – | – | – |
| COc1nc2nc(C)nc(N[C@H](C)c3cccc(C(F)(F)C(C)(C)O)c3)c2cc1N1CCN(C)CC1 [Compound 324, (R)-1,1-difluoro-1-(3-(1-((7-methoxy-2-methyl-6-(4-methylpiperazin-1-yl)pyrido[2,3-d]pyrimidin-4-yl)amino)ethyl)phenyl)-2-methylpropan-2-ol] | ≤ 1 µM | < 0.1 µM | < 0.05 µM | ≤ 1 µM | < 0.5 µM | < 0.5 µM | – | – | – |
| Cc1nc(N[C@H](C)c2cccc(C(F)(F)F)c2F)c2cc(C3CCS(=O)(=O)CC3)c(OC3COC3)nc2n1 [Compound 247, (R)-4-(4-((1-(2-fluoro-3-(trifluoromethyl)phenyl)ethyl)amino)-2-methyl-7-(oxetan-3-yloxy)pyrido[2,3-d]pyrimidin-6-yl)tetrahydro-2H-thiopyran 1,1-dioxide] | ≤ 1 µM | < 0.1 µM | < 0.05 µM | ≤ 1 µM | < 0.5 µM | < 0.5 µM | – | – | – |
| COc1nc2nc(C)nc(N[C@H](C)c3cccc(C(F)F)c3F)c2cc1C1CCN(CCO)CC1 [Compound 130, (R)-2-(4-(4-((1-(3-(difluoromethyl)-2-fluorophenyl)ethyl)amino)-7-methoxy-2-methylpyrido[2,3-d]pyrimidin-6-yl)piperidin-1-yl)ethan-1-ol] | ≤ 1 µM | < 0.1 µM | < 0.05 µM | ≤ 1 µM | < 0.5 µM | < 0.5 µM | – | – | – |
| Cc1nc(N[C@H](C)c2cccc(C(F)F)c2F)c2cc(C3CCN(C(C)C)CC3)c(NC3COC3)nc2n1 [Compound 407, (R)-N4-(1-(3-(difluoromethyl)-2-fluorophenyl)ethyl)-6-(1-isopropylpiperidin-4-yl)-2-methyl-N7-(oxetan-3-yl)pyrido [2,3-d]pyrimidine-4,7-diamine] | 1 to 10 µM | < 0.1 µM | < 0.05 µM | 1 to 10 µM | – | – | – | – | – |
